≈ marks a conversion by molar mass, not a printed value. Like-named read-outs stand apart in the source and are kept apart here.
Experiments:
Format in all cases: cell-based
C. tropicalis GC 3081 = test: Antifungal activity, microtiter broth dilution MIC; settings: 24-48 hours
Description: (§1) The antifungal activity for the 1-oxorapamycins of this invention was confirmed in a standard pharmacological test procedure which measured the ability of the compound being evaluated to inhibit fungal growth. 1-Oxorapamycin (Compound I), 1-oxorapamycin 42-ester with 3-hydroxy-2-(hydroxymethyl)-2-methylpropionic acid (Compound II), and 42-O-(2-hydroxy)ethyl 1-oxorapamycin (Compound III) were evaluated as representative compounds of this invention. The procedure used and results obtained are briefly described below. A 96 U-bottom microtiter plate was filled (50 μl/well) with RPMI 1640. The compounds to be evaluated were placed in appropriate wells, and serial diluted in successive wells to provide 11 dilutions. The concentrations ranged from 64 through 0.06 μg/ml. An adjusted inoculum of fungi (50 μl) was added to each well and the plates were incubated at 35° C. for 24-48 hours. […] Nystatin and rapamycin were used for the purpose of comparison.

C. parapsilosis GC 3076 = test: Antifungal activity, microtiter broth dilution MIC; settings: 24-48 hours
Description: as §1

C. lusitaniae GC 3068 = test: Antifungal activity, microtiter broth dilution MIC; settings: RPMI 1640, 35° C., 24-48 hours; for MIC: Clavispora lusitaniae
Description: as §1

C. albicans GC 3066 = test: Antifungal activity, microtiter broth dilution MIC; settings: 24-48 hours
Description: as §1

A. fumigatus GC 3092 = test: Antifungal activity, microtiter broth dilution MIC
Description: as §1

C. parapsilosis GC 3075 = test: Antifungal activity, microtiter broth dilution MIC; settings: 24-48 hours
Description: as §1

C. albicans GC 3064 = test: Antifungal activity, microtiter broth dilution MIC; settings: 24-48 hours
Description: as §1

C. parapsilosis GC 3074 = test: Antifungal activity, microtiter broth dilution MIC; settings: 24-48 hours
Description: as §1

C. albicans GC 3065 = test: Antifungal activity, microtiter broth dilution MIC; settings: 24-48 hours
Description: as §1

C. pseudotropicalis 3070 = test: Antifungal activity, microtiter broth dilution MIC; settings: RPMI 1640, 35° C., 24-48 hours
Description: as §1

C. tropicalis GC 3080 = test: Antifungal activity, microtiter broth dilution MIC; settings: 24-48 hours
Description: as §1

C. krussii GC 3067 = test: Antifungal activity, microtiter broth dilution MIC; settings: RPMI 1640, 35° C., 24-48 hours
Description: as §1

A. niger GC 3091 = test: Antifungal activity, microtiter broth dilution MIC; settings: 24-48 hours
Description: as §1

A. niger GC 6591 = test: Antifungal activity, microtiter broth dilution MIC; settings: 24-48 hours
Description: as §1

[1] = system: A431 (vulva epidermoid origin) tumor cell line; test: Antineoplastic activity, tumor cell growth inhibition (sulforhodamine B); settings: 48 hours
Text: (§2) Antineoplastic activity for the compounds of this invention was confirmed by evaluating the antineoplastic activity of representative compounds of this invention (Compounds I-III) against six tumor cell lines in vitro. Briefly, tumor cells from six cell lines were placed in wells of a 96 well microtiter plate. The following tumor cell lines were used: 3T3 (ovarian), 3T3/H2N (ovarian—resistant to cis-platin), A431 (vulva epidermoid origin), SW620 (colon), SKBR3 (breast), and MDA-435 (breast). The tumors cells were grown in the presence of serial dilutions of the compound to be evaluated for 48 hours, and cell growth determined using a colorimetric procedure (sulforhrodamine B). The inhibition of growth was calculated compared to the number of cells at the time of test compound addition. Results are expressed as an IC50 (μg/ml); N/A indicates the compound was not evaluated against that cell line. The following IC50s was listed on Table 2.

[2] = system: SKBR3 (breast) tumor cell line; test: as above; settings: 48 hours
Text: as §2

[3] = system: 3T3/H2N (ovarian—resistant to cis-platin) tumor cell line; test: as above; settings: 3T3/H2N cells, 48 hours
Text: as §2

[4] = system: SW620 (colon) tumor cell line; test: as above; settings: 48 hours
Text: as §2

[5] = system: 3T3 (ovarian) tumor cell line; test: as above; settings: 48 hours
Text: as §2

[6] = system: MDA-435 (breast) tumor cell line; test: as above; settings: MDA435 cells, 48 hours
Text: as §2

SH-SY5Y cells = test: Neuroregeneration activity, neurite outgrowth; settings: aphidicolin pretreated, mean ± SEM
Text: The neuroregeneration activity for the compounds of this invention was confirmed in a standard pharmacological test procedure by evaluating 1-oxo-rapamycin (Compound I) as representative compound of this invention, against SH-SY5Y cells in vitro [Gold et al., Exp Neurol 147: 269-278, 1997]. Briefly, SH-SY5Y cells were placed in 6-well plate treated with aphidicolin for 5 days followed by the test compounds using 6-well plates. For controls, wells were untreated, or treated with nerve growth factor (NGF) alone. Test wells were treated with NGF plus compound I or rapamycin. Cells were photographed at 168 hours. Analysis of neuritic lengths was performed on photographic prints using a Houston Instrument HI-PAD digitizing tablet connected to an IBM XT computer with appropriate software (Bioquant IV, R&M Biometrics, Nashville, Tenn.). Mean values for axonal areas were compared using by ANOVA (STATVIEW, Abacus Concepts, Inc., Berkeley, Calif. The following table summarizes the results that were obtained.

With `CO[C@H]1CC2CC[C@@H](C)[C@@](O)(O2)C(=O)C(=O)N2CCCC[C@H]2C(=O)O[C@H]([C@H](C)CC2CC[C@@H](OC(=O)C(C)(CO)CO)[C@H](OC)C2)CC(=O)[C@H](C)/C=C(\C)[C@@H](O)[C@@H](OC)C(=O)[C@H](C)C[C@H](C)C(=O)C/C=C/C=C/1C` (some centres unmarked) [Compound II, 1-Oxorapamycin 42-ester with 3-Hydroxy-2-(hydroxymethyl)-2-methylpropionic acid] the “ANTIFUNGAL ACTIVITY (MIC)” value (C. tropicalis GC 3081; RPMI 1640, 35° C.) was 0.50 µg/mL, the “ANTIFUNGAL ACTIVITY (MIC)” value (C. parapsilosis GC 3076; RPMI 1640, 35° C.) was 1 µg/mL and the “ANTIFUNGAL ACTIVITY (MIC)” value (C. lusitaniae GC 3068; C. lusitaniae GC 3068, first listing (r26)) was 1 µg/mL. The “ANTIFUNGAL ACTIVITY (MIC)” value (C. lusitaniae GC 3068; C. lusitaniae GC 3068, second listing (r28)) was 1 µg/mL, the “ANTIFUNGAL ACTIVITY (MIC)” value (C. albicans GC 3066; RPMI 1640, 35° C.) was 2 µg/mL and the “ANTIFUNGAL ACTIVITY (MIC)” value (A. fumigatus GC 3092; A. fumigatus GC 3092, RPMI 1640, 35° C., 24-48 hours) was 64 µg/mL. The “ANTIFUNGAL ACTIVITY (MIC)” value (C. parapsilosis GC 3075; RPMI 1640, 35° C.) was 2 µg/mL, the “ANTIFUNGAL ACTIVITY (MIC)” value (C. albicans GC 3064; RPMI 1640, 35° C.) was 8 µg/mL and the “ANTIFUNGAL ACTIVITY (MIC)” value (C. parapsilosis GC 3074; RPMI 1640, 35° C.) was 2 µg/mL. For the same molecule, the “ANTIFUNGAL ACTIVITY (MIC)” value (C. albicans GC 3065; RPMI 1640, 35° C.) was 2 µg/mL, the “ANTIFUNGAL ACTIVITY (MIC)” value (C. pseudotropicalis 3070) was 0.50 µg/mL and the “ANTIFUNGAL ACTIVITY (MIC)” value (C. tropicalis GC 3080; RPMI 1640, 35° C.) was 1 µg/mL. The “ANTIFUNGAL ACTIVITY (MIC)” value (C. krussii GC 3067) was 16 µg/mL, the “ANTIFUNGAL ACTIVITY (MIC)” value (A. niger GC 3091; RPMI 1640, 35° C.) was 32 µg/mL and the “ANTIFUNGAL ACTIVITY (MIC)” value (A. niger GC 6591; RPMI 1640, 35° C.) was 64 µg/mL. The “Antineoplastic Activity (IC50)” value ([1]; A431 cells) was 5.5 µg/mL, the “Antineoplastic Activity (IC50)” value ([2]; SKBR3 cells) was 1.7 µg/mL and the “Antineoplastic Activity (IC50)” value [3] was 3.0 µg/mL. For the same molecule, the “Antineoplastic Activity (IC50)” value ([4]; SW620 cells) was 8.7 µg/mL, the “Antineoplastic Activity (IC50)” value ([5]; 3T3 cells) was 0.84 µg/mL and the “Antineoplastic Activity (IC50)” value [6] was 2.8 µg/mL.
With “NGF: nerve growth factor (NGF), control treatment alone and co-treatment in neurite test” the “Mean Neurite Lengths after 168 h, Neurite Length” value (SH-SY5Y cells; NGF alone (control)) was 196.5 ± 7.7 μm.
In the case of `CO[C@H]1CC2CC[C@@H](C)[C@@](O)(O2)C(=O)C(=O)N2CCCC[C@H]2C(=O)O[C@H]([C@H](C)CC2CC[C@@H](O)[C@H](OC)C2)CC(=O)[C@H](C)/C=C(\C)[C@@H](O)[C@@H](OC)C(=O)[C@H](C)C[C@H](C)C(=O)C/C=C/C=C/1C` (some centres unmarked) [Compound I, 1-Oxo-rapamycin], the “Mean Neurite Lengths after 168 h, Neurite Length” value (SH-SY5Y cells; NGF plus test compound) was 233.7 ± 8.8 μm, the MIC (C. tropicalis GC 3081; Candida tropicalis, GC3081, RPMI 1640, 35° C.) was 0.5 µg/mL (≈ 0.538 µM) and the MIC (C. parapsilosis GC 3076; Lodderomyces parapsilosis, GC3076, RPMI 1640, 35° C.) was 2 µg/mL (≈ 2.15 µM). It also gave an MIC (C. lusitaniae GC 3068; GC3068, C. lusitaniae GC 3068, first listing (r26), read-out: ANTIFUNGAL ACTIVITY (MIC)) of 0.5 µg/mL (≈ 0.538 µM), an MIC (C. lusitaniae GC 3068; GC3068, read-out: ANTIFUNGAL ACTIVITY (MIC), C. lusitaniae GC 3068, second listing (r28)) of 2 µg/mL (≈ 2.15 µM) and an MIC (C. albicans GC 3066; Candida albicans, GC3066, RPMI 1640, 35° C.) of 2 µg/mL (≈ 2.15 µM). For the same molecule, the MIC (A. fumigatus GC 3092; Aspergillus fumigatus, GC3092, read-out: ANTIFUNGAL ACTIVITY (MIC)) was 64 µg/mL (≈ 68.8 µM), the MIC (C. parapsilosis GC 3075; Lodderomyces parapsilosis, GC3075, RPMI 1640, 35° C.) was 1 µg/mL (≈ 1.08 µM) and the MIC (C. albicans GC 3064; Candida albicans, GC3064, RPMI 1640, 35° C.) was 8 µg/mL (≈ 8.6 µM). For the same molecule, the MIC (C. parapsilosis GC 3074; Lodderomyces parapsilosis, GC3074, RPMI 1640, 35° C.) was 2 µg/mL (≈ 2.15 µM), the MIC (C. albicans GC 3065; Candida albicans, GC3065, RPMI 1640, 35° C.) was 2 µg/mL (≈ 2.15 µM) and the MIC (C. pseudotropicalis 3070; Kluyveromyces marxianus) was 0.5 µg/mL (≈ 0.538 µM). It also gave an MIC (C. tropicalis GC 3080; Candida tropicalis, GC3080, RPMI 1640, 35° C.) of 2 µg/mL (≈ 2.15 µM), an MIC (C. krussii GC 3067) of 16 µg/mL (≈ 17.2 µM) and an MIC (A. niger GC 3091; Aspergillus niger, GC3091, RPMI 1640, 35° C.) of 64 µg/mL (≈ 68.8 µM). For the same molecule, the MIC (A. niger GC 6591; Aspergillus niger, GC6591, RPMI 1640, 35° C.) was 64 µg/mL (≈ 68.8 µM), the IC50 ([1]; Homo sapiens, A-431, A431 cells) was 6.2 µg/mL (≈ 6.67 µM) and the IC50 ([2]; Homo sapiens, SK-BR-3, SKBR3 cells) was 3.6 µg/mL (≈ 3.87 µM). The IC50 [3] was 2.3 µg/mL (≈ 2.47 µM), the IC50 ([4]; Homo sapiens, SW-620, SW620 cells) was 12.7 µg/mL (≈ 13.7 µM) and the IC50 ([5]; Mus musculus, NIH3T3, 3T3 cells) was 0.89 µg/mL (≈ 0.957 µM). For the same molecule, the IC50 [6] was 6 µg/mL (≈ 6.45 µM).

From patent publication US6399625B1, “1-oxorapamycins” (Wyeth, priority 2000, dated 2002)
